Experimental data reported in patent US20200138855A1, “NOVEL ANTINEOPLASTIC DRUG BASED ON SPECIFICITY OF CANCER-CELL METABOLISM” (priority 2017, published 2020).
Where a name gives a salt, the structure may show the parent alone.

Legend:
[1] = system: recurrent pancreatic cancer (pancreatic body cancer) (Stage IVa); experiment: Example 2: case of recurrent pancreatic cancer (pancreatic body cancer); format: in vivo, human
Text: Patient with recurrent pancreatic cancer (pancreatic body cancer) (Stage IVa)
The patient also had diabetes.

human lung cancer cells = conditions: pHi of human lung cancer cells rises from 7.0 to 7.4; cited from earlier work
pancreatic cancer = conditions: diabetic patients taking metformin versus those taking no metformin; cited from earlier work
[2] = system: colorectal cancer cells having a mutation in KRAS gene and BRAF gene; conditions: contact with high-concentration vitamin C; cited from earlier work

For `Nc1ccn([C@@H]2O[C@H](CO)[C@@H](O)C2(F)F)c(=O)n1` [Gemzar, gemcitabine], the “level of tumor marker (CA19-9)” value ([1]; Gemzar 800 mg/m^2 every other week alone (Oct-Dec 2016), combination from mid February 2017 (NaHCO3 3 g/day, vitamin C 25 g/day once a week, metformin hydrochloride 250 mg/day)) was “significantly increased” and the MRI inspection ([1]; middle of December 2016, Gemzar 800 mg/m^2 every other week alone) was “suspected to have peritoneal dissemination”.

For `COc1cccc2c1C(=O)c1c(O)c3c(c(O)c1C2=O)C[C@@](O)(C(=O)CO)C[C@@H]3O[C@H]1C[C@H](N)[C@H](O)[C@H](C)O1` [doxorubicin hydrochloride], the “increase of resistance to the anti-cancer agent” value (human lung cancer cells) is given as 2,000 times.

For `CN(C)C(=N)NC(=N)N` [metformin], the “reduction of risk of development of pancreatic cancer” value (pancreatic cancer) is listed as 62%.

For `O=C1O[C@H]([C@@H](O)CO)C(O)=C1O` [vitamin C, L-ascorbic acid], the “effect on the cells” value [2] is given as “killed”.
